Test results published in patent publication US4605674A, “Substituted acetophenones and compositions containing them” (Hoffmann-La Roche Inc., priority 1979, dated 1986).
≈ marks a conversion by molar mass, not a printed value. Where two headings read alike, the source gives them in different places.

Columns and labels:
[1] = system: rhinovirus HGP; assay: Inhibition of viral cytopathogenic effect (c.p.e.) of rhinovirus HGP in HeLa cells; format: cell-based, human rhinoviruses; conditions: Enterovirus, 48 h, read-out: IC50 against rhinovirus HGP (concentration inhibiting the viral c.p.e. by 50%)
Experimental: A suspension of HeLa cells (6×10^4) was mixed with rhinovirus HGP (3×10^3 plaque forming units, PFU) and was plated in a microtest plate containing the compounds to be tested serially diluted. The cells were then cultured with Eagle's minimum essential medium containing 2% calf serum, 1% tryptose phosphate broth, 100 μg/ml of streptomycin sulfate and 20 unit/ml of penicillin G. Viral c.p.e. (cytopathogenic effect) was observed by a microscope after 2 days culture at 33° C.
The antiviral activity of the tested compounds is expressed by the concentration inhibiting the viral c.p.e. by 50% when compared to the control culture (IC50).

[2] = in vivo; conditions: mouse, DDY mice, single dose
Experimental: ^(1) DDY mice weighing 15-20 g were treated with a single dose of the
compound. Survivors were recorded on day 21.
^(2) Compounds were dissolved in dimethylsulfoxide.
^(3) Compounds were suspended with solution of 0.5% carboxymethyl

[3] = ip, i.p., dissolved in dimethylsulfoxide, day 21, read-out: LD50 i.p.
[4] = po, p.o., suspended in 0.5% carboxymethyl cellulose, day 21, read-out: LD50 p.o.
[5] = HeLa cells, 2 days culture at 33° C.

IC50 [1, 5] [µg/mL] | Compound | IC50 ([1]; HeLa) [µg/mL] | LD50 at 504 h [2, 3] [mg/kg] | LD50 at 504 h [2, 4] [mg/kg]
– | COc1ccc(/C=C/C(=O)c2c(O)cc(OC)cc2OC(C)C)cc1 [2'-hydroxy-6'-isopropoxy-4,4'-dimethoxychalcone] | 0.1 to 0.2 (≈ 0.292 to 0.584 µM) | > 500 | > 2700
– | COc1cc(/C=C/C(=O)c2c(O)cc(OC)cc2OC)cc(OC)c1 [2'-hydroxy-3,4',5,6'-tetramethoxychalcone] | 0.3 (≈ 0.871 µM) | > 500 | > 5000
– | COc1cc(O)c(C(=O)C=Cc2ccc3c(c2)OCO3)c(OC)c1 [2'-hydroxy-4',6'-dimethoxy-3,4-(methylenedioxy)-chalcone] | 0.02 (≈ 0.0609 µM) | > 1000 | > 5000
– | CCCOc1ccc(/C=C/C(=O)c2c(OC)cc(OC)cc2OC(=O)CC)cc1 [2',4'-dimethoxy-6'-(propionyloxy)-4-propoxychalcone] | 0.1 to 0.3 (≈ 0.251 to 0.753 µM) | > 1000 | > 5000
– | CCOc1cc(OC)cc(OC(=O)CC)c1C(=O)/C=C/c1ccc(OC)cc1 [2'-ethoxy-4,4'-dimethoxy-6'-(propionyloxy)-chalcone] | 0.02 to 0.06 (≈ 0.052 to 0.156 µM) | > 1000 | > 5000
– | COc1cc(O)c(C(=O)C=Cc2sccc2C)c(OC)c1 [2'-hydroxy-4',6'-dimethoxy-3-(3-methyl-2-thienyl)-acrylophenone] | 0.1 (≈ 0.329 µM) | > 500 | > 1500
– | C=CCOc1ccc(/C=C/C(=O)c2c(OC)cc(OC)cc2OC(=O)CC)cc1 [4-(allyloxy)-2',4'-dimethoxy-6'-(propionyloxy)-chalcone] | 0.03 to 0.1 (≈ 0.0757 to 0.252 µM) | > 500 | > 1000
– | CCOc1cc(OC)cc(O)c1C(=O)/C=C/c1ccc(OC)cc1 [2'-ethoxy-6'-hydroxy-4,4'-dimethoxychalcone] | 0.01 (≈ 0.0305 µM) | > 500 | > 1000
0.3 to 1 (≈ 0.908 to 3.03 µM) | COc1cc(O)c(C(=O)/C=C/c2ccc(O)c(OC)c2)c(OC)c1 [2',4-dihydroxy-3,4',6'-trimethoxychalcone] | – | – | –
– | CCCOc1cc(OC)cc(O)c1C(=O)/C=C/c1ccc(OC)cc1 [2'-hydroxy-4,4'-dimethoxy-6'-propoxychalcone] | 0.06 (≈ 0.175 µM) | > 500 | > 1500
– | CCC(=O)Oc1cc(OC)cc(OC)c1C(=O)C=Cc1cccn1C [2',4'-dimethoxy-3-(1-methylpyrrol-2-yl)-6'-(propionyloxy)-acrylophenone] | 0.3 (≈ 0.874 µM) | > 500 | > 5000
– | COc1cc(O)c(C(=O)/C=C/c2ccc(C)cc2)c(OC)c1 | 0.01 (≈ 0.0335 µM) | > 1000 | > 5000
– | CCC(=O)Oc1cc(OC)cc(OC)c1C(=O)/C=C/c1ccc(C)cc1 [2',4'-dimethoxy-4-methyl-6'-(propionyloxy)-chalcone] | 0.03 (≈ 0.0846 µM) | > 1000 | > 5000
– | COc1cc(O)c(C(=O)/C=C/c2cccc(OC)c2OC)c(OC)c1 [2'-hydroxy-2,3,4',6'-tetramethoxychalcone] | 0.1 (≈ 0.29 µM) | > 500 | > 1000
– | CCC(=O)Oc1cc(OC)cc(OC)c1C(=O)/C=C/c1ccccc1 [2',4'-dimethoxy-6'-(propionyloxy)-chalcone] | 0.3 to 1 (≈ 0.881 to 2.94 µM) | > 1000 | > 5000
– | C=CCOc1ccc(/C=C/C(=O)c2c(O)cc(OC)cc2OC)cc1 [4-(allyloxy)-2'-hydroxy-4',6'-dimethoxychalcone] | 0.03 to 0.1 (≈ 0.0881 to 0.294 µM) | > 500 | > 1000
– | CCOC(=O)Oc1cc(OC)cc(OC)c1C(=O)/C=C/c1ccc(OC)cc1 [2'-(ethoxycarbonyloxy)-4,4',6'-trimethoxychalcone] | 0.04 (≈ 0.104 µM) | > 500 | > 4000
– | COc1cc(O)c(C(=O)C=Cc2cccn2C)c(OC)c1 [2'-hydroxy-4',6'-dimethoxy-3-(1-methyl-pyrrol-2-yl)-acrylophenone] | 0.1 (≈ 0.348 µM) | > 500 | > 1000
– | COc1ccc(/C=C/C(=O)c2c(OC)cc(OC)cc2OC(=O)c2cccnc2)cc1 [2',4,4'-trimethoxy-6'-(nicotinoyloxy)chalcone] | 0.01 to 0.025 (≈ 0.0238 to 0.0596 µM) | > 500 | > 4000
– | COc1cc(O)c(C(=O)/C=C/c2ccccc2)c(OC)c1 [2'-hydroxy-4',6'-dimethoxychalcone] | 0.1 to 0.3 (≈ 0.352 to 1.06 µM) | > 1000 | > 5000
– | COc1cc(O)c(C(=O)/C=C/c2ccc(OC)c(O)c2)c(OC)c1 [2',3-dihydroxy-4,4',6'-trimethoxychalcone] | 0.1 to 0.3 (≈ 0.303 to 0.908 µM) | > 500 | > 1000
0.03 to 0.1 (≈ 0.1 to 0.334 µM) | COc1cc(O)c(C(=O)/C=C/c2ccc(N)cc2)c(OC)c1 [4-amino-2'-hydroxy-4',6'-dimethoxychalcone] | – | – | –

IC50 [1, 5] [µg/mL] | Compound | IC50 ([1]; HeLa) [µg/mL] | LD50 at 504 h [2, 3] [mg/kg] | LD50 at 504 h [2, 4] [mg/kg]
– | CCOc1ccc(/C=C/C(=O)c2c(O)cc(OC)cc2OCC)cc1 [2',4-diethoxy-6'-hydroxy-4'-methoxychalcone] | 0.1 (≈ 0.292 µM) | > 500 | > 5000
– | COc1cc(O)c(C(=O)/C=C/c2ccc(OCc3ccccc3)c(OC)c2)c(OC)c1 [4-(benzyloxy)-2'-hydroxy-3,4',6'-trimethoxychalcone] | 1 (≈ 2.38 µM) | > 500 | > 1500
– | CCOc1ccc(/C=C/C(=O)c2c(O)cc(OCC)cc2OC)cc1 [4,4'-diethoxy-2'-hydroxy-6'-methoxychalcone] | 0.006 to 0.02 (≈ 0.0175 to 0.0584 µM) | > 500 | > 1000
– | COc1ccc(/C=C/C(=O)c2c(OC)cc(OC)cc2OC(=O)CCCC(=O)O)cc1 [2'-(4-carboxybutanoyloxy)-4,4',6'-trimethoxychalcone] | 0.03 (≈ 0.07 µM) | > 500 | > 2000
– | COc1cc(O)c(C(=O)C=Cc2ccc(C)o2)c(OC)c1 [2'-hydroxy-4',6'-dimethoxy-3-(5-methyl-2-furyl)-acrylophenone] | 0.03 (≈ 0.104 µM) | > 500 | > 2000
0.6 to 2 (≈ 1.69 to 5.63 µM) | CCN(CC)c1ccc(/C=C/C(=O)c2c(O)cc(OC)cc2OC)cc1 [4-(diethylamino)-2'-hydroxy-4',6'-dimethoxychalcone] | – | – | –
– | COc1cc(O)c(C(=O)C=Cc2ccco2)c(OC)c1 [3-(2-furyl)-2'-hydroxy-4',6'-dimethoxyacrylophenone] | 0.06 to 0.2 (≈ 0.219 to 0.729 µM) | > 500 | > 1500
– | CCOc1ccc(/C=C/C(=O)c2c(O)cc(OC)cc2OC)cc1 [4-ethoxy-2'-hydroxy-4',6'-dimethoxychalcone] | 0.02 to 0.05 (≈ 0.0609 to 0.152 µM) | > 1000 | > 5000
– | COc1cc(O)c(C(=O)/C=C/c2ccc(N(C)C)cc2)c(OC)c1 | 0.02 to 0.06 (≈ 0.0611 to 0.183 µM) | > 1000 | > 5000
– | CCC(=O)Oc1cc(OC)cc(OC)c1C(=O)C=Cc1cccs1 [2',4'-dimethoxy-6'-(propionyloxy)-3-(2-thienyl)-acrylophenone] | 0.1 to 0.3 (≈ 0.289 to 0.866 µM) | > 1000 | > 5000
0.6 (≈ 2.1 µM) | COc1cc(O)c(C(=O)C=Cc2cccnc2)c(OC)c1 [2'-hydroxy-4',6'-dimethoxy-3-(3-pyridyl)-acrylophenone] | – | – | –
– | CCCCCCCCCCCCCCCCCC(=O)Oc1cc(OC)cc(OC)c1C(=O)/C=C/c1ccc(OC)cc1 [2',4,4'-trimethoxy-6'-(octadecanoyloxy)chalcone] | 0.05 to 0.1 (≈ 0.0861 to 0.172 µM) | > 500 | > 4000
– | COc1ccc(/C=C/C(=O)c2c(OC)cc(OC)cc2OC(=O)c2cnccn2)cc1 [2',4,4'-trimethoxy-6'-(pyrazinylcarbonyloxy)-chalcone] | 0.03 to 0.1 (≈ 0.0714 to 0.238 µM) | > 500 | > 4000
– | COc1cc(O)c(C(=O)/C=C/c2ccc(Cl)cc2)c(OC)c1 [4-chloro-2'-hydroxy-4',6'-dimethoxychalcone] | 0.02 to 0.06 (≈ 0.0627 to 0.188 µM) | > 1000 | > 5000
– | COc1cc(O)c(C(=O)/C=C/c2ccc(C#N)cc2)c(OC)c1 [4-cyano-2'-hydroxy-4',6'-dimethoxychalcone] | 0.3 (≈ 0.97 µM) | > 500 | > 1000
– | COc1cc(O)c(C(=O)/C=C/c2ccc(O)cc2)c(OC)c1 [2',4-dihydroxy-4',6'-dimethoxychalcone] | 0.3 to 1 (≈ 0.999 to 3.33 µM) | > 500 | > 3200
– | CCCOc1ccc(/C=C/C(=O)c2c(O)cc(OC)cc2OC)cc1 [2'-hydroxy-4',6'-dimethoxy-4-propoxychalcone] | 0.1 (≈ 0.292 µM) | > 500 | > 5000
– | COc1cc(O)c(C(=O)/C=C/c2cccc(OC)c2O)c(OC)c1 [2,2'-dihydroxy-3,4',6'-trimethoxychalcone] | 0.15 to 0.5 (≈ 0.454 to 1.51 µM) | > 500 | > 1000
– | CCC(=O)Oc1cc(OC)cc(OC)c1C(=O)C=Cc1ccc(C)o1 [2',4'-dimethoxy-3-(5-methyl-2-furyl)-6'-(propionyloxy)-acrylophenone] | 0.03 to 0.1 (≈ 0.0871 to 0.29 µM) | > 500 | > 2000
– | CCC(=O)Oc1cc(OC)cc(OC)c1C(=O)/C=C/c1ccc(SC)cc1 [2',4'-dimethoxy-4-(methylthio)-6'-(propionyloxy)-chalcone] | 0.03 to 0.1 (≈ 0.0776 to 0.259 µM) | > 1000 | > 5000
– | COc1ccc(/C=C/C(=O)c2c(O)cc(OC)cc2OC)c(OC)c1 [2'-hydroxy-2,4,4',6'-tetramethoxychalcone] | 0.1 (≈ 0.29 µM) | > 500 | > 1000
